The values below are quoted from earlier work in US20080293652A1, “Combination of Ad-P53 and Chemotherapy for the Treatment of Tumours” (priority 2004, published 2008).

Numbered stars: 1 amine (or outer) side, 2 acyl side, 3 side chain; on linkers, the order of the positions; unused ones are H or OH. Bridge positions count the residues as written; N and C are the ends. Square brackets hold non-standard residues; d marks the D form. Peptide text beside a SMILES is read from it. I, II: the chains in the order shown. Actinocin(9to1) = Cc1c2oc3c(C)ccc(C(=O)[*:1])c3nc-2c(C(=O)[*:2])c(N)c1=O; NMeV = CN[C@H](C(=O)O)C(C)C; Sar = CNCC(=O)O

For data set [1] the following is noted: for part of the dose excreted / detected intact in the urine: in vivo.
For a further data set, the system named is multiple myeloma. The following applies: oral administration.

For the molecule `CC[C@]1(O)C[C@@H]2CN(CCc3c([nH]c4ccccc34)[C@@](C(=O)OC)(c3cc4c(cc3OC)N(C)[C@H]3[C@@](O)(C(=O)OC)[C@H](OC(C)=O)[C@]5(CC)C=CCN6CC[C@]43[C@@H]65)C2)C1` [Vinblastine], in data set [1], the “part of the dose excreted / detected intact in the urine” value is on record as “Approximately 15%”.

In the case of `N[C@@H](Cc1ccc(N(CCCl)CCCl)cc1)C(=O)O` [Melphalan, 4-[bis(2-chloroethyl)amino]-L-phenylalanine], the “part of patients showing a favorable response” value in the data set with multiple myeloma is “one third to one half”.

Regarding `Cc1c2oc3c(C)ccc(C(=O)N[C@@H]4C(=O)N[C@H](C(C)C)C(=O)N5CCC[C@H]5C(=O)N(C)CC(=O)N(C)[C@@H](C(C)C)C(=O)O[C@@H]4C)c3nc-2c(C(=O)N[C@@H]2C(=O)N[C@H](C(C)C)C(=O)N3CCC[C@H]3C(=O)N(C)CC(=O)N(C)[C@@H](C(C)C)C(=O)O[C@@H]2C)c(N)c1=O` [Actinomycin D] (I: T[dV]P[Sar][NMeV] / II: T[dV]P[Sar][NMeV]; ester I:1-I:C, II:1-II:C; linker I:N-II:N via Actinocin(9to1)), the “part of the dose excreted / detected intact in the urine” value in data set [1] is 10%.

With `CC[C@]1(O)C[C@H]2CN(CCc3c([nH]c4ccccc34)[C@@](C(=O)OC)(c3cc4c(cc3OC)N(C=O)[C@H]3[C@@](O)(C(=O)OC)[C@H](OC(C)=O)[C@]5(CC)C=CCN6CC[C@]43[C@@H]65)C2)C1` [Vincristine], the “terminal half-life (clearance from plasma)” value in data set [1] (multiphasic clearance) is reported as “about 24 hours”.
